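Five concentrations, 48 hours, 96-well plates. TGI is the concentration that stops growth completely.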
Columns and labels:
Experiment in all cases: inhibition of tumour cell growth, NCI panel, 48 h
[1] = tested on: SK-OV-3 ovarian
[2] = tested on: HCT-116 colon
[3] = tested on: HOP-92 NSCLC
[4] = tested on: OVCAR-4 ovarian
[5] = tested on: 786-0 renal
[6] = tested on: EKVX NSCLC
[7] = tested on: NCI-H226 lung
[8] = tested on: MALME-3M melanoma
[9] = tested on: CAKI-1 renal
[10] = tested on: UO-31 renal
[11] = tested on: MCF7 breast
[12] = tested on: SF-268 CNS
[13] = tested on: SN12C renal
[14] = tested on: HT29 colon
[15] = tested on: SK-MEL-2 melanoma
[16] = tested on: MDA-N
[17] = tested on: SR leukemia
[18] = tested on: SW-620 colon
[19] = tested on: COLO 205 colon
[20] = tested on: ACHN renal
[21] = tested on: IGROV1 ovarian
[22] = tested on: HL-60(TB) leukemia
[23] = tested on: TK-10 renal
[24] = tested on: A549 NSCLC
[25] = tested on: OVCAR-3 ovarian
[26] = tested on: HS 578T breast
[27] = tested on: HOP-62 NSCLC
[28] = tested on: MDA-MB-435
[29] = tested on: BT-549 breast
[30] = tested on: K-562 leukemia
[31] = tested on: NCI/ADR-RES ovarian
[32] = tested on: HCT-15 colon
[33] = tested on: MOLT-4 leukemia
[34] = tested on: DU-145 prostate
[35] = tested on: MDA-MB-231 breast
[36] = tested on: PC-3 prostate
[37] = tested on: UACC-62 melanoma
[38] = tested on: CCRF-CEM leukemia
[39] = tested on: SNB-19 CNS
[40] = tested on: NCI-H460 lung
[41] = tested on: SF-295 CNS
[42] = tested on: KM12 colon
[43] = tested on: U251 CNS
[44] = tested on: RPMI-8226 leukemia
[45] = tested on: UACC-257 melanoma
[46] = tested on: NCI-H23 lung
[47] = tested on: NCI-H522 lung
[48] = tested on: SF-539 CNS
[49] = tested on: M14 melanoma
[50] = tested on: SNB-75 CNS
[51] = tested on: LOX IMVI melanoma
[52] = tested on: OVCAR-8 ovarian
[53] = tested on: SK-MEL-28 melanoma
[54] = tested on: OVCAR-5 ovarian
[55] = tested on: RXF 393 renal
[56] = tested on: HCC-2998 colon
[57] = tested on: A498 renal
[58] = tested on: SK-MEL-5 melanoma

## Cc1ccc(/C=C2\CCCc3ccccc3C2=O)cc1
[1]
  TGI: 58 µM
[2]
  TGI: 29.1 µM
[3]
  TGI: 72.4 µM
[4]
  TGI: > 100 µM
[5]
  TGI: > 100 µM
[6]
  TGI: 60.9 µM
[7]
  TGI: 36.1 µM
[8]
  TGI: 34.5 µM
[9]
  TGI: > 100 µM
[10]
  TGI: > 100 µM
[11]
  TGI: 47.3 µM
[12]
  TGI: 30.7 µM
[13]
  TGI: 39.6 µM
[14]
  TGI: 18.5 µM
[15]
  TGI: 9.07 µM
[16]
  TGI: 4.48 µM
[17]
  TGI: 37.1 µM
[18]
  TGI: 65.9 µM
[19]
  TGI: 18.9 µM
[20]
  TGI: > 100 µM
[21]
  TGI: 49.2 µM
[22]
  TGI: 30.7 µM
[23]
  TGI: > 100 µM
[24]
  TGI: > 100 µM
[25]
  TGI: 50.8 µM
[26]
  TGI: 30.8 µM
[27]
  TGI: 60.6 µM
[28]
  TGI: 8.46 µM
[29]
  TGI: 54.1 µM
[30]
  TGI: 53.7 µM
[31]
  TGI: 99.3 µM
[32]
  TGI: 27.2 µM
[33]
  TGI: 52.8 µM
[34]
  TGI: > 100 µM
[35]
  TGI: 36.9 µM
[36]
  TGI: > 100 µM
[37]
  TGI: 29.2 µM
[38]
  TGI: 36.5 µM
[39]
  TGI: 89.2 µM
[40]
  TGI: 32.5 µM
[41]
  TGI: 16.6 µM
[42]
  TGI: 18.2 µM
[43]
  TGI: 52.9 µM
[44]
  TGI: 75 µM
[45]
  TGI: > 100 µM
[46]
  TGI: 89.1 µM
[47]
  TGI: 27.8 µM
[48]
  TGI: 37.5 µM
[49]
  TGI: 20.4 µM
[50]
  TGI: > 100 µM
[51]
  TGI: 30 µM
[52]
  TGI: > 100 µM
[53]
  TGI: > 100 µM
[54]
  TGI: 29.5 µM

## CCOC(=O)C(=Cc1[nH]c2ccccc2c1-c1c[nH]c2ccccc12)C(=O)OCC
[1]
  TGI: 49 µM
[55]
  TGI: 23.3 µM
[2]
  TGI: 22.8 µM
[3]
  TGI: 23.5 µM
[4]
  TGI: 20.3 µM
[5]
  TGI: 7.15 µM
[6]
  TGI: 31.8 µM
[7]
  TGI: 37.5 µM
[8]
  TGI: 34.4 µM
[9]
  TGI: 30.8 µM
[10]
  TGI: 26.3 µM
[11]
  TGI: 22.2 µM
[12]
  TGI: 30.5 µM
[13]
  TGI: 29.4 µM
[14]
  TGI: 17.5 µM
[15]
  TGI: 29.6 µM
[16]
  TGI: 26.5 µM
[17]
  TGI: 32.7 µM
[19]
  TGI: 40.8 µM
[20]
  TGI: 24.5 µM
[21]
  TGI: 24.8 µM
[23]
  TGI: 26.1 µM
[24]
  TGI: 35.9 µM
[25]
  TGI: 21.2 µM
[26]
  TGI: 91.3 µM
[27]
  TGI: 28.1 µM
[28]
  TGI: 18.3 µM
[29]
  TGI: 33.1 µM
[30]
  TGI: 26.6 µM
[31]
  TGI: 47.5 µM
[32]
  TGI: 43.9 µM
[33]
  TGI: > 100 µM
[56]
  TGI: 25 µM
[34]
  TGI: 27.1 µM
[35]
  TGI: 39.3 µM
[57]
  TGI: 28.6 µM
[36]
  TGI: 25 µM
[37]
  TGI: 19.4 µM
[39]
  TGI: 28.3 µM
[40]
  TGI: 29.8 µM
[41]
  TGI: 25.3 µM
[42]
  TGI: 18 µM
[43]
  TGI: 24.3 µM
[44]
  TGI: 23.8 µM
[45]
  TGI: 23.8 µM
[46]
  TGI: 35.4 µM
[47]
  TGI: > 100 µM
[48]
  TGI: 39.1 µM
[58]
  TGI: 29.2 µM
[49]
  TGI: 21.7 µM
[50]
  TGI: 26.4 µM
[51]
  TGI: 26.7 µM
[52]
  TGI: 25.8 µM
[54]
  TGI: 30.3 µM

— PubChem BioAssay (NCI)
